This note sets out measurements from patent US9402911B2, “Multifunctional small molecules” (The Regents of the University of Michigan, priority 2011, dated 2016).

The target of this test is Folate binding protein (FBP, bovine milk) (Bos taurus, UniProt P02702). The test is described as follows: SPR binding to immobilized folate binding protein. The conditions noted are these: read-out: equilibrium dissociation constant KD, FBP chip, free MTX.
Folate binding protein (FBP, bovine milk), sequence (P02702 20-234): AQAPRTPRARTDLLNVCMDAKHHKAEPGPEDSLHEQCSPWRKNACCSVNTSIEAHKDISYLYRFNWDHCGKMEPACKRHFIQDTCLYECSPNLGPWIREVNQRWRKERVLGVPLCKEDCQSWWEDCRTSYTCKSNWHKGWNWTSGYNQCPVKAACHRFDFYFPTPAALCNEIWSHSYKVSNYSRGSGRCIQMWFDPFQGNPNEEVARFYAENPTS

Experimental: SPR analysis was performed in a Biacore® X instrument (Pharmacia Biosensor AB, Uppsala, Sweden).
Folate binding protein (FBP)-presenting chip was prepared at the surface protein density of 11 ng/mm^2 (≈2-3 FBP per 10 nm^2) following an EDC-based amide coupling method as described previously (see, e.g., Hong, S.; et al., Chem. Biol. 2007, 14, 107-15; Plantinga, A.; et al., ACS Med. Chem. Lett. 2011, 2, 363-67; each herein incorporated by reference in their entireties).
In an approach to determine the equilibrium dissociation constants (KD) for G5-MTXn on a quantitative basis, the SPR data was analyzed by using the non-linear regression method as established for SPR analysis (see, e.g., Ober, R. J.; et al., Anal. Biochem. 2003, 312, 57-65; herein incorporated by reference in its entirety). This analytical method enabled the SPR data to be fit according to a linear combination of exponential functions, and to extract the estimates for their kinetic rate constants (kon, koff) and KD (FIG. 7).

As for `CN(Cc1cnc2nc(N)nc(N)c2n1)c1ccc(C(=O)N[C@@H](CCC(=O)O)C(=O)O)cc1` [MTX, methotrexate], the Kd worked out at 24 µM.
